{"source": "patent US20070071773A1", "about": "“Compositions and methods for the treatment and prophylaxis of infections caused by gram positive bacteria” (priority 2002, published 2007)", "key": {"[1]": {"tested_on": "GAS strain JS95", "assay": "Murine model of invasive soft-tissue infection: survival and skin lesions after subcutaneous challenge with JS95", "assay_type": "in vivo, Group A Streptococcus (GAS)", "protocol": "(§1) The ability of GAS to cause lethal infection in ten-gram BALB/c female mice (Harlan Laboratories, Jerusalem, Israel) was assessed as described before [Ravins, M. et al. J. Infect. Dis. 182:1702-11 (2000)]. Briefly, 10^8 CFU of log-phase bacteria were washed twice in PBS, resuspended in 0.1 ml PBS and injected subcutaneously into the back of a mouse. The number of CFU injected was verified for each experiment by plating bacteria on THY-blood agar plates and counting. Each group contained 8 to 10 mice that were observed daily for death and changes in the lesions' properties such as size and depth, or were sacrificed at different times after inoculation for histopathological assessment. To determine the presence of bacteria in skin and spleen, mice were sacrificed; a wide area surrounding the skin lesions was excised, spleens were removed, and organs were homogenized in 10 or 1 ml of sterile PBS, respectively. Aliquots were plated and streptococcal colonies were counted. The Institutional Ethics Committee for animal care approved all animal procedures (approval number MD 79.17-4).\nTherefore, the inventors next tested the peptide effect on virulence of the highly invasive strain of the invention. A 17 amino acid peptide, corresponding to the amino acid sequence encoded by the SilCR ORF, was synthesized and purified. Mice were challenged with the highly virulent strain (JS95) in the presence and absence of the 17 amino acid synthetic peptide DIFKLVIDHISMKARKK (also denoted by SEQ ID NO: 32), of a 70% purity.\nThe ability of the peptide to protect mice inoculated with increasing doses of the bacteria ranging from 10^7 to 10^10 CFU was next examined. […] Mice challenged with a low dose of 10^7 CFU, in the absence of the peptide, died within 4 days after challenge. […] Results were consistent even after 21 days of follow up (data not shown).\nMice were injected under the surface of the skin with 2×10^8 of M14 GAS strain, JS95, without (FIG. 8A) or with 25 μg of the highly purified (90% purity) 17 amino acid peptide (SEQ ID NO: 32) (FIG. 8B).\nIn order to examine the ability of the 17 amino acid peptide (SEQ ID NO: 32) to protect against bacterial challenge, mice were injected with 200 μg of this peptide 24 hours prior to bacterial challenge. As shown by FIG. 9, the 17 amino acid peptide protects 50% of the mice when injected 24 hours before bacterial challenge of 4×10^8 CFU of JS95 strain."}, "[2]": {"tested_on": "GAS strain JS95", "assay": "Histopathology of soft-tissue lesions: neutrophil (PMN) recruitment in mice challenged with JS95", "assay_type": "in vivo, Group A Streptococcus (GAS)", "details": "10^8 CFU JS95 with 100 μg of 70% pure peptide, 24 h after inoculation, FIG. 11C, 11D", "protocol": "Haematoxylin and eosin stain of the soft-tissue lesions from a mouse challenged with 10^8 CFU of JS95 24 h after inoculation (11A-11B) in the presence of 100 μg of 70% pure peptide (11C, 11D). After 24 hours, skin samples were stained with hematoxiline and eosine and examined by microscopy at 50 (11A, 11C) and 400 (11B, 11D) fold magnification. There is extensive necrosis of fascia, massive presence of bacteria but no infiltration of neutrophils. There were no differences in the histopathology findings as determined in two mice in 4 different experiments.\nas §1, with “To determine the presence of bacteria in skin and spleen, mice were sacrificed; a wide area surrounding the skin lesions was excised, spleens were removed, and organs were homogenized in 10 or 1 ml of sterile PBS, respectively.” left out, “The Institutional Ethics Committee for animal care approved all animal procedures (approval number MD 79.17-4).” left out"}, "[3]": {"tested_on": "M3 strain", "assay": "Murine NF model: lesions after challenge with an M3 strain", "assay_type": "in vivo, Group A Streptococcus (GAS)", "details": "SilCR injected together with an M3 strain (data not shown)"}, "[4]": {"tested_on": "C5a peptidase", "assay": "Surface expressed C5a peptidase of GAS in the absence and presence of SilCR", "assay_type": "cell-based, Group A Streptococcus (GAS)", "details": "absence vs presence of SilCR (not shown)"}, "[5]": {"details": "peptide of 90% purity mixed with 10^8 CFU JS95, subcutaneous, FIG. 6"}}, "data": [{"sequence": "DIFKLVIDHISMKARKK (SilCR peptide) [17 amino acid synthetic peptide, predicted mature form of the pheromone peptide encoded by the SilCR ORF; used at 70% or 90% purity]", "values": [{"measurement": "protection of mice (survival)", "setting": "[1]; 3 μg of the 90% purified peptide, JS95 challenge as high as 10^10 CFU, FIG. 16A", "value": "protected mice"}, {"measurement": "survival of mice", "setting": "[1]; 25 μg peptide (90% purity) with 2×10^8 JS95 under the surface of the skin, FIG. 8", "value": "all mice of this group survived"}, {"measurement": "skin lesion", "setting": "[1]; 25 μg peptide (90% purity) with 2×10^8 JS95 under the surface of the skin, FIG. 8B, 8D", "value": "small abscess surrounded by a normal skin"}, {"measurement": "protection of mice (survival)", "setting": "[1]; 100 μg peptide (70% purity) injected together with 10^7 CFU JS95, FIG. 5", "value": "partial protection"}, {"measurement": "mice protected", "setting": "[1]; 200 μg peptide (70% pure) injected 24 hours before challenge with 4×10^8 CFU JS95, FIG. 9", "value": 50, "unit": "%"}, {"measurement": "protection of mice (survival)", "setting": "[1]; 200 μg peptide (70% pure), challenge with 10^7 and up to 10^9 CFU JS95, FIG. 7", "value": "completely protected"}, {"measurement": "deaths of mice", "setting": "[1]; 200 μg peptide (70% pure), challenge with 10^10 CFU JS95, FIG. 7", "value": "only one mouse died"}, {"measurement": "protection of mice (survival)", "setting": "[1]; 200 μg peptide (70% purity) injected together with 10^7 CFU JS95, FIG. 5", "value": "complete protection"}, {"measurement": "lesions of mice", "setting": "[1]; challenged with JS95 and SilCR, compared with JS95 alone, FIG. 8B vs 8A", "value": "significantly smaller, less necrotic and superficial, with defined borders"}, {"measurement": "dose dependence of protection of mice", "setting": "[1]; peptide of 70% purity, 10^7 CFU JS95, FIG. 5", "value": "dose-dependent"}, {"measurement": "peptide dose at which the protective effect is evident", "setting": "[1]; [5]", "value": 3, "unit": "µg"}, {"measurement": "peptide dose reaching plateau level of protection", "setting": "[1]; [5]", "value": 50, "unit": "µg"}, {"measurement": "protection of mice when administered at a site distant to the bacterial challenge", "setting": "[1]; simultaneously administered at a distant site", "value": "nor did it protect mice"}, {"measurement": "recruitment of PMN / neutrophil infiltration at the site of infection", "setting": "[2]", "value": "abundant neutrophil infiltration"}, {"measurement": "recruitment of PMN / neutrophil infiltration at the site of infection", "setting": "[2]; listed as peptide", "value": "significant recruitment of PMN"}, {"measurement": "lesions", "setting": "[3]", "value": "reduced lesions"}, {"measurement": "amount of surface expressed C5a peptidase", "setting": "[4]", "value": "did not observe any change"}]}]}
